# Several values for one entry are separate records, joined by “and”; a condition that tells them apart may be missing. Equal values may be shown once.
# How the values were obtained:
# [1] = Franz cell vancomycin permeability, capsule vs direct dilution in donor well; details: 25 tissue samples from n=5 animals, control = direct dilution in donor well, p<0.05
# Experimental: Both helical and smooth exteriors were assessed. […] Given inter-animal variability of tissue properties, a ratio of permeability induced by the capsule to the control condition was calculated using a matched-pair format per animal.
# [2] = vancomycin permeability in isolated small intestine sections of anesthetized swine, mesenteric venous blood; details: 100 mg vancomycin, capsules vs sham control pills, p<0.001
# Description: In anesthetized swine, sections of the small intestine were isolated to serve as independent testing sites while controlling for animal-specific properties such as hydration status, peristaltic rate, blood pressure, and perfusion.
# [3] = oral insulin delivery via capsule or endoscopic spray in the small intestine, blood glucose and insulin monitoring; format: in vivo, swine
# Experimental: Blood glucose and insulin concentrations were monitored for a 75-minute period with the drug delivery starting at 15 minutes.
# [4] = oral insulin, background; cited from earlier work
# [5] = FITC-dextran uptake with capsule vs direct application
# Description: To assay the capability of the capsule to assist in the delivery of larger molecules, fluorescein isothiocyanate-(FITC) dextran having various molecular weights were delivered using the capsule, at various motor frequencies, and compared to direct application (controls).
compound,measurement,setting,value
CN[C@H](CC(C)C)C(=O)N[C@H]1C(=O)N[C@@H](CC(N)=O)C(=O)N[C@H]2C(=O)N[C@H]3C(=O)N[C@H](C(=O)N[C@H](C(=O)O)c4cc(O)cc(O)c4-c4cc3ccc4O)[C@H](O)c3ccc(c(Cl)c3)Oc3cc2cc(c3O[C@@H]2O[C@H](CO)[C@@H](O)[C@H](O)[C@H]2O[C@H]2C[C@](C)(N)[C@H](O)[C@H](C)O2)Oc2ccc(cc2Cl)[C@H]1O [vancomycin],increase of vancomycin drug permeability with capsule delivery compared to controls,[1],over 10 fold
same,tissue permeability with capsules relative to control,[2],≥ 20 times the control
insulin,variance of blood glucose from baseline,"[3]; 100 units insulin by endoscopic spray in the small intestine (control), n=5",16.6 ± 17.3 mg/dL
same,average blood glucose reduction,"[3]; 100 units insulin via the capsule, n=7 animals, 75-minute monitoring",55.54 ± 16.1 mg/dL
same,uptake dynamics compared to subcutaneous or IV injection,[3]; capsule delivery of insulin,more gradual uptake
same,time to changes in plasma glucose levels,[3]; insulin via the capsule,≤ 15 min
same,animals with hypoglycemia (blood glucose<20 mg/dL) necessitating dextrose infusion,"[3]; insulin via the capsule, ensued at 60 minutes",three and 3 out of 7
same,oral bioavailability,[4],less than 2.5%
fluorescein isothiocyanate-(FITC) dextran,uptake increase at 40 kDa and 70 kDa,[5]; molecular weights 40 kDa and 70 kDa,greatest increases
same,uptake with the capsule compared to direct application,"[5]; molecular weights as high as 150 kDa, various motor frequencies",significantly increase uptake

# From patent US20230285227A1, “INGESTIBLE CAPSULES” (Massachusetts Institute of Technology, priority 2022, published 2023)
